From US9381172B2, “Small molecule choline kinase inhibitors, screening assays, and methods for treatment of neoplastic disorders” (UNIVERSITY OF LOUISVILLE RESEARCH FOUNDATION, INC., priority 2009, dated 2016)
Read-outs that look alike come from different tables or passages of the source.

Assays:
HeLa Cells [1] = assay: Cell Growth Inhibition, HeLa cells (trypan blue exclusion); format: cell-based; settings: for IC50: Homo sapiens, HeLa, 48 h after treatment, 50% of vehicle-treated cell growth
Procedure: (§1) HeLa (ATCC: CCL-2), A549-human lung carcinoma (ATCC: CCL-185), Lewis lung carcinoma (LLC) (ATCC: CRL-1642), and melanoma cells (ATCC: CRL-11147) were cultured in DMEM (Hyclone) supplemented with 10% fetal bovine serum (Hyclone) and 50 μg/mL gentamicin sulfate (Invitrogen). Jurkat leukemia cells were cultured in RPMI (Hyclone) supplemented with 10% fetal bovine serum and 50 μg/mL gentamicin sulfate. Human mammary epithelial cells were grown in mammary epithelial basal medium (Lonza) supplemented according to manufacturer's protocol. All cell lines were maintained at 5% CO2 at 37° C.
(§2) All cell lines were plated at 1×10^5/mL in the appropriate medium. For suspension cells, the tested compound was added immediately to the medium, whereas the tested compound treatment was initiated the following day for adherent cell lines. For overexpression studies, HeLa cells were transiently transfected with empty vector or vector containing wild type choline kinase twenty-four hours prior to addition of increasing concentrations of CK37. Cells were then collected 48 h after treatment, and cell number and viability were determined by trypan blue exclusion. IC50s were calculated at the tested compound concentration needed for 50% of vehicle-treated cell growth (see Table 4). The data represented are the mean±STD from triplicate measurements from three independent experiments.

Jurkat Cells = assay: Cell Growth Inhibition, Jurkat cells (trypan blue exclusion); format: cell-based; settings: for IC50: Homo sapiens, Jurkat, 48 h after treatment, 50% of vehicle-treated cell growth
Procedure: as §1, §2

[2] = system: endogenous choline kinase (HeLa cells); assay: Choline kinase activity in whole HeLa cells (radiolabeled choline); format: cell-based
Procedure: For HeLa cell labeling, cells were seeded at 1×10^5 cells/mL and incubated with increasing concentrations of the tested compound for 48 hours. Methyl[^14C]-choline chloride was added 24 hours before cell harvest, and cells were extracted and analyzed as described above. Densitometry units were normalized to total protein levels for each sample.

[3] = system: various neoplastic cell lines from both solid and hematologic origins; assay: Cell Growth Inhibition, various neoplastic cell lines; format: cell-based; settings: all tumor cell lines investigated; FIG. 3A; read-out: IC50 values of cell growth suppression
Procedure: as §1, §2

[4] = system: primary mammary epithelial cells (HMEC); assay: Cell Growth Inhibition, primary mammary epithelial cells; format: cell-based, human; settings: FIG. 3B
Procedure: as §1, §2

[5] = system: MDA-MB-231 mammary carcinoma cells; assay: Cell Growth Inhibition, MDA-MB-231 cells; format: cell-based; settings: FIG. 3B
Procedure: as §2

HeLa Cells [6] = assay: Soft agar colony formation; format: cell-based; settings: 5 μM CK37; 14 days; Control: 2506±158
Procedure: HeLa cells were plated at a density of 25×10^3 cells per 60-mm plate with 3 mL bottom agar (0.6%) and 2 mL top agar (0.3%) in normal growth medium. Cells were fed every three days by addition of a new layer of top agar which contained increasing concentrations of the tested compound. After 14 days of growth, colonies were counted in random from 1 cm squared sections of each plate.

Lewis Lung Carcinoma = assay: Mouse tumors: Lewis lung carcinoma in C57B1/6 mice; format: in vivo; settings: 0.08 mg/g i.p. daily for nine days
Procedure: Exponentially growing Lewis lung carcinoma cells were collected, washed twice, and resuspended in PBS (1×10^7/mL). C57B1/6 female mice (20 g) were injected s.c. with 0.1 mL of the suspension. Body weight and tumor growth were monitored daily throughout the study. Tumor masses were determined by measurement with Vernier calipers using the formula: mass (mg)=[width^2 (mm)×length (mm)]/2. Mice with established tumors (between 130 and 190 mg) were randomized into vehicle control or the tested compound treated groups. Vehicle control groups received i.p. injections of 50 μL DMSO, whereas treated groups received 0.08 mg/g the tested compound in 50 μL DMSO at the indicated time points. All protocols were approved by the University of Louisville Institutional Animal Care and Use Committee.

[7] = Tolerability of intraperitoneal CK37 in C57B1/6 mice; format: in vivo
Procedure: In order to investigate some possible non-toxic doses of CK37 for use in vivo, we intraperitoneally injected C57B1/6 mice with 0.06, 0.07, and 0.08 mg/g of CK37. […] C57B1/6 mice bearing Lewis Lung Carcinoma xenografts (mean baseline mass=143±14 mg) were given intraperitoneal injections of 0.08 mg/g CK37 daily for nine days. As shown in FIG. 5A-B, CK37 administration suppressed tumor growth by 48% compared to the vehicle control group.

[8] = system: choline kinase (HeLa lysates); assay: Choline kinase activity assay of HeLa cell lysates; format: biochemical; settings: HeLa cell lysate; FIG. 7
Procedure: Choline kinase activity was assayed as described previously in Hernandez-Alcoceba et al. “Choline kinase inhibitors as a novel approach for antiproliferative drug design,” Oncogene 1997, 15:2289-2301, the disclosure of which is incorporated herein by this reference. For HeLa cell lysate, equal volume of lysate was incubated in the presence or absence of the tested compound in kinase assay buffer (100 mM Tris-HCl, 100 mM MgCl2, 10 mM ATP, 200 μM choline, and 2 μM methyl[^14C]-choline chloride (50-60 μCi, mmol). Reactions were carried out at 37° C. for one hour and immediately stopped by addition of TCA (Trichloroacetic Acid) to a final concentration of 16%. The TCA soluble fraction was then washed 3× with four volumes of water saturated ethyl ether, and dried under vacuum. Metabolites were separated by thin layer chromatography using 60 Å silica gel plates and a liquid phase consisting of 0.9% NaCl:methanol:ammonium hydroxide (50:70:5; V:V:V). Radioactive images were resolved by PhosphorImager screening and densitometry was performed using Image Quant software.

choline kinase = settings: reported; cited from earlier work
[9] = system: HT-29 human adenocarcinoma cells; settings: reported; cited from earlier work
[10] = system: HeLa cell endogenous choline kinase; settings: reported; cited from earlier work
[11] = reported; cited from earlier work

| Structure (SMILES) | IC50 (HeLa Cells [1]) | IC50 (Jurkat Cells) | further results |
| --- | --- | --- | --- |
| CCC1(c2ccccc2)NC(=O)N(CC(=O)c2ccc(OC)cc2OC)C1=O (stereo not shown) [A] | > 25 µM | > 10 µM | – |
| C[C@@]1(c2ccc3ccccc3c2)NC(=O)N(CC(=O)OCC(=O)NCCC#N)C1=O [B] | > 25 µM | > 10 µM | – |
| CCc1ccc(-c2nnc(SCC(=O)Nc3cc(C)cc(C)c3)[nH]2)cc1 [CK37, N-(3,5-dimethylphenyl)-2-[[5-(4-ethylphenyl)-1H-1,2,4-triazol-3-yl]sulfanyl]acetamide] | 4.2 µM | 5.4 µM | inhibition of endogenous choline kinase activity in whole cells ([2]; 10 μM, 48 hours, FIG. 2B): 61.7%±9.7%; decrease in HeLa cell endogenous choline kinase ([2]; about the same concentration as MN58B, somewhat different conditions): 60%; IC50 [3]: 5 to 10 µM; CK37 concentration compared for growth suppression [4]: 10 µM; CK37 concentration compared for growth suppression ([5]; MDA-MB-231): 0.5 µM; difference in selectivity against neoplastic versus primary cell growth ([5]; MDA-MB-231 versus HMEC): 20 fold; number of soft agar colonies (HeLa Cells [6]): 360±77; tumor growth suppression compared to the vehicle control group (Lewis Lung Carcinoma): 48%; wet weight of resected tumors at the end of treatment (Lewis Lung Carcinoma; Vehicle: 1109±107 mg, p<0.01): 648 ± 96 mg; clinical signs or symptoms of distress ([7]; 0.06, 0.07, and 0.08 mg/g intraperitoneally): no clinical signs or symptoms of distress; dose limiting toxicity ([7]; mice): > 80 mg/kg |
| COc1ccc(OCC(=O)OC(C)C(=O)Nc2cccc3ccccc23)cc1 (stereo not shown) [CP6] | 12.6 µM | 9.8 µM | HeLa cell proliferation (HeLa Cells [1]; FIG. 8): selectively suppresses HeLa cell proliferation; Jurkat cell proliferation (Jurkat Cells; FIG. 9): selectively suppresses Jurkat cell proliferation; endogenous choline kinase activity [8]: dose-dependent decrease in endogenous choline kinase activity |
| CSc1ccc(C=CC(=O)OCC(=O)NC(Cc2ccccc2)C(C)=O)cc1 (stereo not shown) [C] | 15.2 µM | > 10 µM | – |
| CCc1ccc(C(=O)CN2C(=O)NC(CC)(c3ccccc3)C2=O)cc1 (stereo not shown) [E] | > 25 µM | > 10 µM | – |
| CC(OC(=O)CCC(=O)c1cccs1)C(=O)Nc1cccc2ccccc12 (stereo not shown) [G] | > 25 µM | > 10 µM | – |
| CCCNC(=O)COC(=O)CN1C(=O)N[C@@](C)(c2ccc(C)cc2)C1=O [H] | > 25 µM | > 10 µM | – |
| CCC(=O)c1ccc(OCC(=O)OCc2csc(-c3ccc(OC)cc3)n2)cc1 [I] | > 25 µM | > 10 µM | – |
| COc1cc(C(C)=O)ccc1OCC(=O)NCc1ccc(C)cc1 [J] | > 25 µM | > 10 µM | – |
| COc1ccccc1CNC(=O)CN1C(=O)NC(C)(c2ccc(C)cc2)C1=O (stereo not shown) [K] | > 25 µM | > 10 µM | – |
| CN(C)c1cc[n+](Cc2ccc(CCCCc3ccc(C[n+]4ccc(N(C)C)cc4)cc3)cc2)cc1.[Br-].[Br-] [MN58B] | – | – | IC50 (choline kinase): 4.2 µM; IC50 [9]: 0.5 µM; inhibition in HeLa cell endogenous choline kinase [10]: 75%; dose limiting toxicity [11]: 5 to 10 mg/kg |
| COCCNC(=O)CN1C(=O)NC(C)(c2ccc(C)cc2)C1=O (stereo not shown) [M] | > 25 µM | > 10 µM | – |
| C=CCn1c(COc2cccc(C)c2)nnc1SCc1ncc(-c2ccccc2)o1 [O] | > 25 µM | > 10 µM | – |
| COc1ccccc1COC(=O)CN1C(=O)N[C@@](C)(c2ccc(C)cc2)C1=O [P] | 18.3 µM | > 10 µM | – |
